Results reported in publication PMC5944846 (ACS chemical biology, 2018).
In brackets after ≈: the same amount, converted by molar mass. Where two headings read alike, the source gives them in different places.

Test system: E. coli ATCC 25922
Experiment: MIC against E. coli ATCC 25922
Assay type: cell-based
Settings: Escherichia coli

SMILES: CN(C)[C@@H]1C(O)=C(C(N)=O)C(=O)[C@@]2(O)C(O)=C3C(=O)c4c(O)cccc4[C@@](C)(O)[C@H]3[C@H](O)[C@@H]12 [oxytetracycline]
- MIC (ATCC25922, read-out: oxytetracycline + 32 μg/mL tyrobetaine MIC): 8 mg/L
- MIC (ATCC25922, read-out: oxytetracycline MIC): 4 mg/L (≈ 8.69 µM)
